# Data reported in patent US5149704A, “Platelet activating antagonists” (Abbott Laboratories, priority 1991, dated 1992).
# Structures can show the parent of a compound that is named as a salt.
# Biological target: T1, PAF receptor (Oryctolagus cuniculus, UniProt G1TEI7)
# T1 construct: platelet membranes were prepared by centrifugation and washing; tissue Pel-Freez (Rogers, AR); host or cells: rabbit platelets from citrated whole blood (membranes)
# Assay: PAF receptor binding assay ([^3 H]C18 -PAF, rabbit platelet membranes)
# Conditions: 0.6 nM [^3 H]C18 -PAF, 60 min, 22-23 °C, Ki from IC50 by Cheng and Prusoff
# Experimental: The ability of representative compounds of the present invention to inhibit PAF activity was determined in an in vitro test using the following method. Citrated whole rabbit blood was obtained from Pel-Freez (Rogers, AR). Rabbit platelets were prepared by centrifugation and washing. The platelets were lysed by freeze-thawing and sonication; platelet membranes were prepared by centrifugation and washing. Final membrane preparations were stored frozen in 10 mM Tris/5 mM MgCl2 /2 mM EDTA (TME buffer, pH 7.0) with 0.25M sucrose added for membrane stabilization. […] The final volume of the assay was 100 μl. The assay was conducted in […] (Millipore Corp.) filtration plates; incubation time was for 60 minutes at room temperature (22°-23° C.). "Specific binding" was operationally defined as the arithmetic difference between "total binding" of 0.6 nM [^3 H]C18 -PAF (in the absence of added PAF) and "nonspecific binding" (in the presence of 1 μM PAF). After the prescribed incubation, platelet membranes were filtered under vacuum, and washed with 1 millilitre of "binding buffer". The filters were dried and removed. The bound radioactivity was quantitated with a Berthold TLC-Linear Analyzer model LB2842. Dose-response curves of inhibition of specific [^3 H]C18 -PAF binding by test compounds were conducted in triplicate, with at least four doses covering the active range. Experiments were repeated at least once. IC50 values (concentration producing 50% inhibition) were determined by point-to-point evaluation. Ki values of inhibitory binding constants were calculated according to the method of Cheng and Prusoff [Biochem. Pharmacol. 22 (1973) 3099-3108] whereby [formula] The values of Ki for representative compounds of the present invention appear in Table 1.
# T1 sequence (G1TEI7 1-342): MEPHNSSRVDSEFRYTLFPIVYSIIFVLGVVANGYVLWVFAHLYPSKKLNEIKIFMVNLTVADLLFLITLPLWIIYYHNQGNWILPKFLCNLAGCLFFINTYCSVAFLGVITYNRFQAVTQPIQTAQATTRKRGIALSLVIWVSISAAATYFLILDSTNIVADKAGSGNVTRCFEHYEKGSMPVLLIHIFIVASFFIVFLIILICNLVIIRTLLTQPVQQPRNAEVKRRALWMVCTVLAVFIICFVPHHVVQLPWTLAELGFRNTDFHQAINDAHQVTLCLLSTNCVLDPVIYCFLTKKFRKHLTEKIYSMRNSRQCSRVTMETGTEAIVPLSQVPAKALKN
row,Compound,Ki [nM]
1,"COc1cc(C(=O)c2cccc(NC[C@H]3CC[C@@H](c4cccnc4)N3)c2)cc(OC)c1OC (relative stereo) [13 (cis), N-[3-(3,4,5-trimethoxybenzoyl)phenyl][2-(3-pyridyl)-pyrrolidin-5-yl]methylamine]",2300
2,"COc1cc(C(=O)c2cccc(NC[C@H]3CC[C@H](c4cccnc4)N3)c2)cc(OC)c1OC (relative stereo) [13 (trans), N-[3-(3,4,5-trimethoxybenzoyl)phenyl][2-(3-pyridyl)-pyrrolidin-5-yl]methylamine]",8700
3,"COc1cc(C(=O)c2cccc(NCC3CSC(c4cccnc4)N3C(=O)OC(C)(C)C)c2)cc(OC)c1OC (single isomer, unassigned) [Example 1a]",6770
4,"COc1cc(C(=O)c2cccc(NCC3CSC(c4cccnc4)N3C(=O)OC(C)(C)C)c2)cc(OC)c1OC (single isomer, unassigned) [Example 1b]",13000
5,"COc1cc(C(=O)c2cccc(NCC3CSC(c4cccnc4)N3)c2)cc(OC)c1OC (stereo not drawn) [Example 2, N-[3-(3,4,5-trimethoxybenzoylphenyl]2-(3-pyridinyl)thiazolid-4-ylmethylaminetrihydrochloride]",10
6,"CC(C)(C)OC(=O)N1C(CNc2cccc(C(=O)c3ccccc3)c2)CSC1c1cccnc1 (stereo not drawn) [Example 3, N-(3-benzoylphenyl)2-(3-pyridinyl)-3-tert-butoxycarbonylthiazolid-4-ylmethylamine]",8700
7,"N-[3-(3,4,5-trimethoxybenzoylphenyl]2-(3-pyridinyl)dithiolan-4-ylmethylamine dihydrochloride [Example 10]",900

# The next lines start with the values.
row,Ki [nM],Compound
1,23,"O=C(c1ccccc1)c1cccc(NCC2CSC(c3cccnc3)N2)c1 (stereo not drawn) [Example 4, N-(3-benzoylphenyl)2-(3-pyridinyl)thiazolid-4-ylmethylamine]"
2,38,"O=C(c1ccccc1)c1cccc(NCC2CSC(c3cccnc3)N2)c1 (stereo not drawn) [Example 5, N-(3-benzoylphenyl)2-(3-pyridinyl)thiazolid-4-ylmethylamine trihydrochloride]"
3,430,"O=C(c1ccccc1)c1ccccc1NCC1CSC(c2cccnc2)N1 (stereo not drawn) [Example 6, N-(2-benzoylphenyl)2-(3-pyridinyl)thiazolid-4-ylmethylamine]"
4,1200,"O=C(c1ccccc1)c1ccc(NCC2CSC(c3cccnc3)N2)cc1 (stereo not drawn) [Example 7, N-(4-benzoylphenyl)2-(3-pyridinyl)thiazolid-4-ylmethylamine]"
5,190,"c1ccc(Oc2ccc(NCC3CSC(c4cccnc4)N3)cc2)cc1 (stereo not drawn) [Example 8, N-(4-phenoxyphenyl)2-(3-pyridinyl)thiazolid-4-ylmethylamine]"
6,1400,"CN1C(CNc2cccc(C(=O)c3ccccc3)c2)CSC1c1cccnc1 (stereo not drawn) [Example 9, N-(3-benzoylphenyl)[2-(3-pyridinyl)-3-methylthiazolid-4-yl]methylamine dihydrochloride]"
7,160,"O=C(c1ccccc1)c1cccc(NCC2CSC(c3cccnc3)S2)c1 (stereo not drawn) [Example 11, N-(3-benzoylphenyl)2-(3-pyridinyl)dithiolan-4-ylmethylamine]"
8,3400,"CN(CC1CSC(c2cccnc2)N1)c1cccc(C(=O)c2ccccc2)c1 (stereo not drawn) [Example 12, N-(3-benzoylphenyl) N-methyl 2-(3-pyridinyl)thiazolid-4-ylmethylamine trihydrochloride]"
9,110,"COc1cc(C(=O)c2cccc(NC(=O)NCC3CSC(c4cccnc4)N3)c2)cc(OC)c1OC (stereo not drawn) [Example 14, N-[2-(3-pyridinyl)thiazolid-4-ylmethyl]-N'-[3-(3,4,5-trimethoxybenzoyl)phenyl]urea]"
10,150,"O=C(NCC1CSC(c2cccnc2)N1)Nc1cccc(C(=O)c2ccccc2)c1 (stereo not drawn) [Example 15, N-[2-(3-pyridinyl)thiazolid-4-ylmethyl]N'-(3-benzoylphenyl)urea dihydrochloride]"
11,750,"O=C(NCC1CSC(c2cccnc2)S1)Nc1cccc(C(=O)c2ccccc2)c1 (stereo not drawn) [Example 16, N-[2-(3-pyridinyl)dithiolan-4-ylmethyl]N'-(3-benzoylphenyl)urea]"
